Data from PubChem BioAssay (NCI).
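Protocol summary: plate cells (96-well), add compound at 5 concentrations, incubate 48 h, interpolate endpoints linearly. The concentration for 50% growth inhibition is given as GI50. Definition used: TGI = concentration required for complete inhibition of growth.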

Experiments:
Assay in all cases: NCI anticancer screen, dose series, 48 h; in the data active means GI50 below about 0.43 µM; inactive means the rest
RPMI-8226 leukemia = system: RPMI-8226 leukemia
ACHN renal = system: ACHN renal
HCC-2998 colon = system: HCC-2998 colon
MDA-MB-435 = system: MDA-MB-435
MOLT-4 leukemia = system: MOLT-4 leukemia
UO-31 renal = system: UO-31 renal
UACC-257 melanoma = system: UACC-257 melanoma
COLO 205 colon = system: COLO 205 colon
SK-MEL-5 melanoma = system: SK-MEL-5 melanoma
HS 578T breast = system: HS 578T breast
SR leukemia = system: SR leukemia
MCF7 breast = system: MCF7 breast
K-562 leukemia = system: K-562 leukemia
OVCAR-8 ovarian = system: OVCAR-8 ovarian
IGROV1 ovarian = system: IGROV1 ovarian
SF-295 CNS = system: SF-295 CNS
OVCAR-5 ovarian = system: OVCAR-5 ovarian
OVCAR-3 ovarian = system: OVCAR-3 ovarian
MALME-3M melanoma = system: MALME-3M melanoma
NCI-H460 lung = system: NCI-H460 lung
EKVX NSCLC = system: EKVX NSCLC
HOP-62 NSCLC = system: HOP-62 NSCLC
M14 melanoma = system: M14 melanoma
SNB-75 CNS = system: SNB-75 CNS
SF-268 CNS = system: SF-268 CNS
NCI-H23 lung = system: NCI-H23 lung
LOX IMVI melanoma = system: LOX IMVI melanoma
SK-OV-3 ovarian = system: SK-OV-3 ovarian
SK-MEL-2 melanoma = system: SK-MEL-2 melanoma
SNB-19 CNS = system: SNB-19 CNS
U251 CNS = system: U251 CNS
HT29 colon = system: HT29 colon
NCI-H522 lung = system: NCI-H522 lung
HOP-92 NSCLC = system: HOP-92 NSCLC
HCT-116 colon = system: HCT-116 colon
SF-539 CNS = system: SF-539 CNS
NCI/ADR-RES ovarian = system: NCI/ADR-RES ovarian
PC-3 prostate = system: PC-3 prostate
DU-145 prostate = system: DU-145 prostate
786-0 renal = system: 786-0 renal
MDA-MB-231 breast = system: MDA-MB-231 breast
SK-MEL-28 melanoma = system: SK-MEL-28 melanoma
SW-620 colon = system: SW-620 colon
CAKI-1 renal = system: CAKI-1 renal
OVCAR-4 ovarian = system: OVCAR-4 ovarian
KM12 colon = system: KM12 colon
SN12C renal = system: SN12C renal
HCT-15 colon = system: HCT-15 colon
HL-60(TB) leukemia = system: HL-60(TB) leukemia
NCI-H226 lung = system: NCI-H226 lung
A549 NSCLC = system: A549 NSCLC
TK-10 renal = system: TK-10 renal
A498 renal = system: A498 renal
UACC-62 melanoma = system: UACC-62 melanoma
RXF 393 renal = system: RXF 393 renal
T-47D breast = system: T-47D breast
CCRF-CEM leukemia = system: CCRF-CEM leukemia
BT-549 breast = system: BT-549 breast

COc1ccc(/C=C2\N=C(c3ccccc3)N(c3cc(C(F)(F)F)ccc3Cl)C2=O)cc1OC
51 µM: TGI (HOP-62 NSCLC)
51.6 µM: TGI (LOX IMVI melanoma)
78.4 µM: TGI (HS 578T breast)
68.3 µM: TGI (RXF 393 renal)
65.8 µM: TGI (M14 melanoma)
47.3 µM: TGI (HL-60(TB) leukemia)
> 100 µM: TGI (ACHN renal) | TGI (HCC-2998 colon) | TGI (MDA-MB-435) | TGI (UO-31 renal) | TGI (UACC-257 melanoma) | TGI (COLO 205 colon) | TGI (MCF7 breast) | TGI (OVCAR-8 ovarian) | TGI (IGROV1 ovarian) | TGI (SF-295 CNS) | TGI (OVCAR-5 ovarian) | TGI (OVCAR-3 ovarian) | TGI (MALME-3M melanoma) | TGI (NCI-H460 lung) | TGI (EKVX NSCLC) | TGI (SNB-75 CNS) | TGI (SF-268 CNS) | TGI (NCI-H23 lung) | TGI (SK-OV-3 ovarian) | TGI (SNB-19 CNS) | TGI (U251 CNS) | TGI (NCI-H522 lung) | TGI (HOP-92 NSCLC) | TGI (NCI/ADR-RES ovarian) | TGI (PC-3 prostate) | TGI (DU-145 prostate) | TGI (MDA-MB-231 breast) | TGI (SK-MEL-28 melanoma) | TGI (CAKI-1 renal) | TGI (OVCAR-4 ovarian) | TGI (KM12 colon) | TGI (SN12C renal) | TGI (HCT-15 colon) | TGI (NCI-H226 lung) | TGI (A549 NSCLC) | TGI (TK-10 renal) | TGI (A498 renal) | TGI (UACC-62 melanoma) | TGI (T-47D breast)
54.9 µM: TGI (SK-MEL-5 melanoma)
80.8 µM: TGI (RPMI-8226 leukemia)
87.6 µM: TGI (K-562 leukemia)
41.4 µM: TGI (HCT-116 colon)
71.7 µM: TGI (MOLT-4 leukemia)
63.1 µM: TGI (HT29 colon)
37.3 µM: TGI (786-0 renal)
57 µM: TGI (SF-539 CNS)
0.0635 µM: TGI (SR leukemia)
82.1 µM: TGI (SK-MEL-2 melanoma)
46.2 µM: TGI (SW-620 colon)
inactive: GI50 (RPMI-8226 leukemia) 25.8 µM | GI50 (ACHN renal) 58.1 µM | GI50 (HCC-2998 colon) 65 µM | GI50 (MDA-MB-435) 40.6 µM | GI50 (MOLT-4 leukemia) 29 µM | GI50 (UO-31 renal) 48.4 µM | GI50 (UACC-257 melanoma) > 100 µM | GI50 (COLO 205 colon) 74 µM | GI50 (SK-MEL-5 melanoma) 25 µM | GI50 (HS 578T breast) 24.4 µM | GI50 (MCF7 breast) 35.4 µM | GI50 (K-562 leukemia) 31.2 µM | GI50 (OVCAR-8 ovarian) 50.8 µM | GI50 (IGROV1 ovarian) 28.4 µM | GI50 (SF-295 CNS) 95 µM | GI50 (OVCAR-5 ovarian) > 100 µM | GI50 (OVCAR-3 ovarian) 37.9 µM | GI50 (MALME-3M melanoma) 79.7 µM | GI50 (NCI-H460 lung) 43 µM | GI50 (EKVX NSCLC) > 100 µM | GI50 (HOP-62 NSCLC) 21.1 µM | GI50 (M14 melanoma) 28.5 µM | GI50 (SNB-75 CNS) 56.7 µM | GI50 (SF-268 CNS) 31.8 µM | GI50 (NCI-H23 lung) 90.6 µM | GI50 (LOX IMVI melanoma) 23.8 µM | GI50 (SK-OV-3 ovarian) > 100 µM | GI50 (SK-MEL-2 melanoma) 31.9 µM | GI50 (SNB-19 CNS) 46.4 µM | GI50 (U251 CNS) 39 µM | GI50 (HT29 colon) 26.9 µM | GI50 (NCI-H522 lung) 31.8 µM | GI50 (HOP-92 NSCLC) 83.9 µM | GI50 (HCT-116 colon) 21.4 µM | GI50 (SF-539 CNS) 24.2 µM | GI50 (NCI/ADR-RES ovarian) 55.6 µM | GI50 (PC-3 prostate) 31.4 µM | GI50 (DU-145 prostate) 43.1 µM | GI50 (786-0 renal) 13.8 µM | GI50 (MDA-MB-231 breast) 87 µM | GI50 (SK-MEL-28 melanoma) 46.9 µM | GI50 (SW-620 colon) 20.5 µM | GI50 (CAKI-1 renal) > 100 µM | GI50 (OVCAR-4 ovarian) 39.2 µM | GI50 (KM12 colon) 39 µM | GI50 (SN12C renal) 65.7 µM | GI50 (HCT-15 colon) 40.7 µM | GI50 (HL-60(TB) leukemia) 17.6 µM | GI50 (NCI-H226 lung) 56.6 µM | GI50 (A549 NSCLC) 82 µM | GI50 (TK-10 renal) 93.6 µM | GI50 (A498 renal) > 100 µM | GI50 (UACC-62 melanoma) 64.3 µM | GI50 (RXF 393 renal) 33.5 µM | GI50 (T-47D breast) > 100 µM

CN(C)c1ccc(/C=C(\C#N)c2cc3ccccc3n2C)cc1
1.27 µM: TGI (OVCAR-3 ovarian)
0.604 µM: TGI (A498 renal)
inactive: GI50 (UO-31 renal) 0.82 µM | GI50 (UACC-257 melanoma) 2.98 µM | GI50 (SK-MEL-5 melanoma) 0.606 µM | GI50 (OVCAR-5 ovarian) 0.487 µM | GI50 (EKVX NSCLC) 0.636 µM | GI50 (SF-268 CNS) 2.18 µM | GI50 (NCI-H23 lung) 0.56 µM | GI50 (SK-OV-3 ovarian) 0.532 µM | GI50 (HOP-92 NSCLC) 0.556 µM | GI50 (DU-145 prostate) 0.505 µM | GI50 (MDA-MB-231 breast) 0.509 µM | GI50 (SK-MEL-28 melanoma) 1.07 µM | GI50 (BT-549 breast) 0.618 µM | GI50 (OVCAR-4 ovarian) 0.701 µM | GI50 (SN12C renal) 0.482 µM | GI50 (NCI-H226 lung) 1.46 µM | GI50 (TK-10 renal) > 100 µM
5.64 µM: TGI (HT29 colon)
0.713 µM: TGI (SF-539 CNS)
1.29 µM: TGI (NCI-H522 lung)
active: GI50 (RPMI-8226 leukemia) 0.351 µM | GI50 (ACHN renal) 0.386 µM | GI50 (HCC-2998 colon) 0.293 µM | GI50 (MOLT-4 leukemia) 0.32 µM | GI50 (COLO 205 colon) 0.258 µM | GI50 (HS 578T breast) 0.361 µM | GI50 (SR leukemia) 0.0396 µM | GI50 (MCF7 breast) 0.0379 µM | GI50 (K-562 leukemia) 0.0407 µM | GI50 (OVCAR-8 ovarian) 0.405 µM | GI50 (IGROV1 ovarian) 0.143 µM | GI50 (SF-295 CNS) 0.0787 µM | GI50 (OVCAR-3 ovarian) 0.123 µM | GI50 (MALME-3M melanoma) 0.133 µM | GI50 (NCI-H460 lung) 0.353 µM | GI50 (CCRF-CEM leukemia) 0.244 µM | GI50 (HOP-62 NSCLC) 0.296 µM | GI50 (M14 melanoma) 0.075 µM | GI50 (SNB-75 CNS) 0.0562 µM | GI50 (LOX IMVI melanoma) 0.425 µM | GI50 (SK-MEL-2 melanoma) 0.328 µM | GI50 (SNB-19 CNS) 0.357 µM | GI50 (U251 CNS) 0.357 µM | GI50 (HT29 colon) 0.121 µM | GI50 (NCI-H522 lung) 0.122 µM | GI50 (HCT-116 colon) 0.101 µM | GI50 (SF-539 CNS) 0.208 µM | GI50 (NCI/ADR-RES ovarian) 0.0895 µM | GI50 (PC-3 prostate) 0.204 µM | GI50 (786-0 renal) 0.418 µM | GI50 (SW-620 colon) 0.0898 µM | GI50 (CAKI-1 renal) 0.0856 µM | GI50 (KM12 colon) 0.211 µM | GI50 (HCT-15 colon) 0.0687 µM | GI50 (HL-60(TB) leukemia) 0.0931 µM | GI50 (A549 NSCLC) 0.226 µM | GI50 (A498 renal) 0.0412 µM | GI50 (UACC-62 melanoma) 0.103 µM | GI50 (RXF 393 renal) 0.133 µM | GI50 (T-47D breast) 0.204 µM
> 43.8 µM: TGI (HCC-2998 colon)
0.549 µM: TGI (RXF 393 renal)
> 100 µM: TGI (RPMI-8226 leukemia) | TGI (ACHN renal) | TGI (MOLT-4 leukemia) | TGI (UO-31 renal) | TGI (UACC-257 melanoma) | TGI (HS 578T breast) | TGI (MCF7 breast) | TGI (K-562 leukemia) | TGI (OVCAR-8 ovarian) | TGI (IGROV1 ovarian) | TGI (OVCAR-5 ovarian) | TGI (MALME-3M melanoma) | TGI (CCRF-CEM leukemia) | TGI (EKVX NSCLC) | TGI (HOP-62 NSCLC) | TGI (M14 melanoma) | TGI (SF-268 CNS) | TGI (NCI-H23 lung) | TGI (LOX IMVI melanoma) | TGI (SK-OV-3 ovarian) | TGI (SK-MEL-2 melanoma) | TGI (SNB-19 CNS) | TGI (U251 CNS) | TGI (HCT-116 colon) | TGI (NCI/ADR-RES ovarian) | TGI (PC-3 prostate) | TGI (DU-145 prostate) | TGI (786-0 renal) | TGI (MDA-MB-231 breast) | TGI (SK-MEL-28 melanoma) | TGI (SW-620 colon) | TGI (CAKI-1 renal) | TGI (BT-549 breast) | TGI (OVCAR-4 ovarian) | TGI (KM12 colon) | TGI (SN12C renal) | TGI (HCT-15 colon) | TGI (NCI-H226 lung) | TGI (A549 NSCLC) | TGI (TK-10 renal) | TGI (UACC-62 melanoma) | TGI (T-47D breast)
> 23 µM: TGI (HOP-92 NSCLC)
4.4 µM: TGI (NCI-H460 lung)
1.75 µM: TGI (SNB-75 CNS)
1.72 µM: TGI (COLO 205 colon)
12.1 µM: TGI (SK-MEL-5 melanoma)
